Reference: US20240271096A1, “EFFICIENT DIFFERENTIATION OF SECOND HEART FIELD CARDIAC PROGENITOR CELLS AND RIGHT VENTRICLE CARDIOMYOCYTES FROM HUMAN PLURIPOTENT STEM CELLS” (Wisconsin Alumni Research Foundation, priority 2023, published 2024)

Legend:
Type in all cases: cell-based, human
[1] = tested on: reporterless hiPSC line; test: Immunostaining of marker proteins in hiPSC-derived cardiac progenitor cells and cardiomyocytes
Procedure: For LV-cardiomyocyte differentiation, cardiac differentiation was performed according to the protocol published by (Lian et al., 2012, Proc Natl Acad Sci USA 109:[…]-57). Cells were dissociated with StemPro Accutase Cell Dissociation Reagent at 37° C. for 5 minutes. HESCs were seeded on Matrigel-coated 24-well plates (Corning) in StemFlex Medium supplemented with 10 μmol/[…] were seeded on iMatrix-511-coated 12-well plates (Corning) in StemFit A[…] supplemented with 10 μmol/[…] at seeding densities of 1×10^5 cells/cm^2 for hESCs and 1.25-2.5×10^4 cells/cm^2 for hiPSCs. Cells were cultured for 4 days until the start of differentiation (day 0). On day 0, the medium was changed to RPMI 1640 Medium (Thermo Fisher Scientific) supplemented with B-27 Supplement minus insulin (Thermo Fisher Scientific) (RPMI/B27-insulin) or B-27 Supplement with insulin (Thermo Fisher Scientific), and 12 μmol/L CHIR 99021 (SelleckChem, Houston, TX, United States), and the cells incubated in this medium for 24 h (day 1). On day 1, the medium was changed to RPMI/B27-insulin. […] On day 3, the medium was changed to RPMI/B27-insulin supplemented with 5 μmol/L IWP2 (SelleckChem) and on day 5, the medium was changed to 1 ml RPMI/B27-insulin. From day 7, the cells were cultured with RPMI/B27-insulin, and the cells were fed every other day. On day 12, the cells were washed with PBS (Thermo Fisher Scientific) and cultured with DMEM or RPMI, no glucose supplemented with 8 mmol/L L-(+)-Lactic acid (Merck) (Tohyama et al., 2013 Cell Stem Cell, 12:127-37). The medium was changed every other day until day 17. After day 17, the cells were cultured with RPMI/B27 and fed every 2 to 3 days. For long-term culture, the cells were dissociated with TrypLETM Select Enzyme (10×) (Thermo Fisher Scientific) at 37° C. for 15-20 minutes and seeded on Matrigel- or iMatrix-511-coated plates. […] For FIG. 15A and FIG. 15B, dorsomorphin (DM) or 3 μg/L insulin were added on day 0 (for 24 hours), 1, 3, or 5 (for 48 hours). Cells were plated on iMatrix-511-coated plates and fixed in 4% paraformaldehyde (Nacalai, Kyoto, Japan) for 15 minutes. Cells were permeabilized with 0.1% Triton X-100 (Sigma-Aldrich, St. Louis, MO, United States)/PBS and blocked with 10% goat serum (Sigma-Aldrich). Primary and secondary antibodies were diluted in 0.1% Triton X-100/PBS with 5% goat serum and stained with Hoechst 33342 (Thermo Fisher Scientific) at 1 μg/mL, mouse anti-cardiac troponin T monoclonal IgG1 (GTX28295, GeneTex, Irvine, CA, United States) diluted at 1:16000, mouse anti-α-actinin monoclonal IgG1 (A7811, Sigma-Aldrich) diluted at 1:1000, rabbit anti-MLC2v monoclonal IgG (ab92721, Abcam, Cambridge, United Kingdom) diluted at 1:500, rabbit anti-CXCR4 monoclonal IgG (ab181020, Abcam) diluted at 1:2000, rabbit anti-NKX2-5 monoclonal IgG (Cat #. […], Cell Signaling Technology, Danvers, MA, United States) diluted at 1:2500, mouse anti-Nav1.5 (Car #. ASC-013, Alomone Labs) diluted at 1:1000, rabbit anti-connexin 43 (Cat #. 83649, Cell Signaling Technology) diluted at 1:1000, and mouse anti-TBX5 monoclonal IgG2a (Cat #. sc-515536, Santa Cruz Biotechnology, Dallas, TX, United States) diluted at 1:500. These cells were then incubated with a secondary antibody, goat anti-mouse or rabbit polyclonal IgG conjugated with iFluor 488 or 555 (AAT Bioquest, Sunnyvale, CA, United States) diluted at 1:1000, for 1 hour at room temperature. The cells were then observed with IX71 (Olympus, Tokyo, Japan) or EVOS FL Auto (Thermo Fisher Scientific) and images processed with ImageJ ([…] al., 2012, Nat Methods, 9:671-5).

[2] = tested on: hPSC-CMs; test: Quantitative PCR of purified hiPSC-derived cardiomyocytes; conditions: DMH1-treated cell-derived cardiomyocytes at day 34
Procedure: For LV-cardiomyocyte differentiation, cardiac differentiation was performed according to the protocol published by (Lian et al., 2012, Proc Natl Acad Sci USA 109:[…]-57). Cells were dissociated with StemPro Accutase Cell Dissociation Reagent at 37° C. for 5 minutes. HESCs were seeded on Matrigel-coated 24-well plates (Corning) in StemFlex Medium supplemented with 10 μmol/[…] were seeded on iMatrix-511-coated 12-well plates (Corning) in StemFit A[…] supplemented with 10 μmol/[…] at seeding densities of 1×10^5 cells/cm^2 for hESCs and 1.25-2.5×10^4 cells/cm^2 for hiPSCs. Cells were cultured for 4 days until the start of differentiation (day 0). On day 0, the medium was changed to RPMI 1640 Medium (Thermo Fisher Scientific) supplemented with B-27 Supplement minus insulin (Thermo Fisher Scientific) (RPMI/B27-insulin) or B-27 Supplement with insulin (Thermo Fisher Scientific), and 12 μmol/L CHIR 99021 (SelleckChem, Houston, TX, United States), and the cells incubated in this medium for 24 h (day 1). On day 1, the medium was changed to RPMI/B27-insulin. […] PowerUpTM SYBR Green Master Mix (Thermo Fisher Scientific) and QuantStudio 1 (Thermo Fisher Scientific) were used for quantitative PCR (q-PCR), wherein q-PCR data were processed using the ΔΔCT method. […] Data were analyzed with the web-based tool of GeneGlobe Data Analysis Center (Qiagen).

[3] = tested on: hiPSC-derived cells; test: Flow cytometry of cardiac troponin T (cTnT); conditions: 1 μmol/L on day 0; day 12; n=4; mean±SD; control 82.1±2.6%, p=0.04
Procedure: For LV-cardiomyocyte differentiation, cardiac differentiation was performed according to the protocol published by (Lian et al., 2012, Proc Natl Acad Sci USA 109:[…]-57). Cells were dissociated with StemPro Accutase Cell Dissociation Reagent at 37° C. for 5 minutes. HESCs were seeded on Matrigel-coated 24-well plates (Corning) in StemFlex Medium supplemented with 10 μmol/[…] were seeded on iMatrix-511-coated 12-well plates (Corning) in StemFit A[…] supplemented with 10 μmol/[…] at seeding densities of 1×10^5 cells/cm^2 for hESCs and 1.25-2.5×10^4 cells/cm^2 for hiPSCs. Cells were cultured for 4 days until the start of differentiation (day 0). On day 0, the medium was changed to RPMI 1640 Medium (Thermo Fisher Scientific) supplemented with B-27 Supplement minus insulin (Thermo Fisher Scientific) (RPMI/B27-insulin) or B-27 Supplement with insulin (Thermo Fisher Scientific), and 12 μmol/L CHIR 99021 (SelleckChem, Houston, TX, United States), and the cells incubated in this medium for 24 h (day 1). On day 1, the medium was changed to RPMI/B27-insulin. […] On day 3, the medium was changed to RPMI/B27-insulin supplemented with 5 μmol/L IWP2 (SelleckChem) and on day 5, the medium was changed to 1 ml RPMI/B27-insulin. […] The cells were resuspended in 0.5% bovine serum albumin (Merck)/PBS and analyzed with an Attune NxT Flow Cytometer (Thermo Fisher Scientific).

CC(C)Oc1ccc(-c2cnc3c(-c4ccnc5ccccc45)cnn3c2)cc1 [DMH1, dorsomorphin homologue 1, reference compound]
CXCR4 expression (immunostaining) ([1]; 0.5 μmol/L on day 0, day 7): upregulated
MLC2v, ventricular marker protein (immunostaining) ([1]; 0.5 μmol/L on day 0, day 35): expressed
NKX2-5-positive/cTnT-positive cardiomyocytes ([1]; DMH1 on differentiation day 0, day 10): induced
TBX5 expression (immunostaining) ([1]; DMH1 on differentiation day 0, day 10, dose-dependent): reduced
immunostaining signal of Nav1.5 and Connexin 43 ([1]; cardiomyocytes day 34, vs control): reduction
expression of TGFB1, COL1A1, COL1A2, COL3A1, and COL5A1 (qPCR) [2]: reduced

c1cc(-c2cnn3cc(-c4ccc(OCCN5CCCCC5)cc4)cnc23)ccn1 [dorsomorphin]
percentages of cTnT-positive cells [3]: 70.4±7.3%
